Earlier results on two molecules are cited in patent US8034370B2, “Ocular implant made by a double extrusion process” (Allergan, Inc., priority 2003, dated 2011).

SMILES strings stand for the structures. Read-outs that look alike come from different tables or passages of the source.

For series [1] the following is noted: in vivo efficacy.
For series [2] the following is noted: after topical administration.

With `C[C@]12CCC(=O)C=C1CC[C@@H]1[C@@H]2[C@@H](O)C[C@@]2(C)[C@H]1CC[C@]2(O)C(=O)CO` [hydrocortisone], in series [1], the “potency relative to dexamethasone” value is listed as “approximately twenty five”.

For `C[C@@H]1C[C@H]2[C@@H]3CCC4=CC(=O)C=C[C@]4(C)[C@@]3(F)[C@@H](O)C[C@]2(C)[C@@]1(O)C(=O)CO` [Dexamethasone, pregna-1,4-diene-3,20-dione-9-fluoro-11,17,21-trihydroxy-16-methyl-, (11β,16α)], the “fraction reaching the anterior segment” value in series [2] is reported as “about 1%”. The Solubility result reads like this: (Ethanol) “Ethanol: Sparingly soluble”; (Methylene chloride) “Methylene chloride: slightly soluble”; (Water) “Water: practically insoluble”.
